Assays:
C-Raf kinase = target: T1, C-Raf kinase (Homo sapiens, UniProt P04049, Y340D/Y341D); assay: Biochemical assay for C-Raf.1 (coupled pyruvate kinase/lactate dehydrogenase); details: read-out: CRAF.1 IC50
T1 construct: Y340D,; GST (N); purchased Sigma
Summary of the method: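 NADH depletion at 340 nm monitored continuously for 6 h at 30° C, with rates taken over 4–5 h. The coupled pyruvate kinase/lactate dehydrogenase reaction used 1 mM ATP, 30.1 nM MEK substrate and 0.43 nM kinase at pH 7.5. IC50 was fitted sigmoidally from percent inhibition of serially diluted compound.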

A375 cells = assay: A375 cell proliferation assay (1), resazurin, 96-well; type: cell-based; details: Homo sapiens, A-375, inhibition of cell proliferation
Summary of the method: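 Viability was read by resazurin fluorescence at 540 nm excitation and 600 nm emission, using a 440 μM solution added for 5–6 h at the end of culture. IC50 came from the curve fit.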

WM3928 cells = assay: WM3928 cell proliferation assay (1), resazurin, 96-well; type: cell-based; details: inhibition of cell proliferation
Description: WM3928 Cell Proliferation Assay (1)
WM3928 cells (#WM3928-01-0001) are obtained from Rockland Immunochemicals Inc (Gilbertsville, PA). Briefly, cells were grown in MCDB 153 medium (Sigma, #M7403, St. Louis, MO) supplemented with 20% Leibovitz's L-15 (ThermoFisher #11415-064, Waltham, MA), 2% heat inactivated fetal bovine serum (ThermoFisher, #A3840001, Waltham, MA), 5 μg/mL Insulin (Bovine Pancreas) (Sigma, #I0516, St. Louis, MO), 1.68 mM Calcium Chloride (Sigma, #C-34006, St. Louis, MO) and 1% Penicillin/Streptomycin/L-Glutamine (ThermoFisher #10378016, Waltham, MA) at 37° C., 5% CO2, and 95% humidity. Cells are expanded until reaching 70-95% confluency at which point they are subcultured or harvested for assay use. A serial dilution of test compound is dispensed into a 96-well black clear bottom plate in triplicate. Three thousand cells are added per well in 200 μL complete growth medium in the 96-well plate. Plates are incubated for 67-72 hours at 37° C., 5% CO2, and 95% humidity. At the end of the incubation, 40 μL of a 440 μM solution of resazurin (Sigma, #199303, St. Louis, MO) in PBS is added to each well of the plate and plates are incubated for an additional 6-7 hours at 37° C., 5% CO2, and 95% humidity. Plates are read on a Synergy2 or equivalent reader (Biotek, Winooski VT) using an excitation of 540 nm and an emission of 600 nm. Data is analyzed using Prism software (GraphPad, San Diego, CA) to calculate IC50 values.

H2405 cells = assay: H2405 cell proliferation assay (1), resazurin, 96-well; type: cell-based; details: Homo sapiens, NCI-H2405, inhibition of cell proliferation
Summary of the method: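 This is a resazurin viability readout (excitation 540 nm, emission 600 nm) taken 5-6 h after adding 440 μM resazurin solution, giving IC50 values.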

T1 sequence (P04049 307-648 Y340D/Y341D): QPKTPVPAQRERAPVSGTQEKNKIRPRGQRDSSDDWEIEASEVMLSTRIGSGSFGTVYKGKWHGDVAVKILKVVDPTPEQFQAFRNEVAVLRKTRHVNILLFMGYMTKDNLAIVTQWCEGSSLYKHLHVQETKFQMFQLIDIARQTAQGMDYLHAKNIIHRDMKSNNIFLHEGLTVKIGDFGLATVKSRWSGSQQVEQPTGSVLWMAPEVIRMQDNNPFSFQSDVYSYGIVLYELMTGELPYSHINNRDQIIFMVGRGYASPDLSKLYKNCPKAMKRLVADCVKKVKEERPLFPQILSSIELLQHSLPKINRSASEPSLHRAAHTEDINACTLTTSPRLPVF

Row | Compound | IC50 (C-Raf kinase) [nM] | IC50 (A375 cells) [nM] | IC50 (H2405 cells) [nM] | IC50 (WM3928 cells) [nM]
1 | Cc1ccc(NC(=O)NCCC(C)(C)C)cc1-c1ccnc(N2CCOCC2)c1 [Example 18] | ≤ 100 | 1000 to 10000 | – | –
2 | Cc1cc(F)c(NC(=O)NCCC(C)(C)C#N)cc1-c1cc(N2CCOCC2)nc(N2CCOCC2)c1 [Example 22] | ≤ 100 | 1000 to 10000 | 1000 to 10000 | 1000 to 10000
3 | Cc1cc(F)c(NC(=O)NCCC2(C(F)(F)F)CC2)cc1-c1cc(N2CCOCC2)nc(N2CCOCC2)c1 [Example 23] | ≤ 100 | 500 to 1000 | 100 to 500 | 100 to 500
4 | Cc1cc(F)c(NC(=O)NCCC2(C(F)(F)F)CC2)cc1-c1cc(OCCO)nc(C2CCOCC2)c1 [Example 24] | ≤ 100 | 100 to 500 | 100 to 500 | –
5 | COC(C)(C)CCNC(=O)Nc1ccc(C)c(-c2cc(-c3cnn(C)c3)nc(N3CCOCC3)c2)c1 [Example 38] | ≤ 100 | 1000 to 10000 | – | –
6 | Cc1ccc(NC(=O)Nc2cn(C)nc2C(F)(F)F)cc1-c1cc(OCCO)nc(N2CCOCC2)c1 [Example 42] | > 1000 | 1000 to 10000 | 1000 to 10000 | –
7 | Cc1ccc(NC(=O)Nc2cnc(C(F)(F)F)s2)cc1-c1cc(OCCO)nc(N2CCOCC2)c1 [Example 43] | ≤ 100 | ≤ 100 | 100 to 500 | –
8 | CC(=O)Nc1cc(-c2cc(-c3cc(NC(=O)Nc4ccc(C(F)(F)F)cc4)cnc3C)ccn2)ccn1 [Example 48] | ≤ 100 | 1000 to 10000 | – | –
9 | CC(=O)Nc1cc(-c2cc(-c3cc(NC(=O)N[C@H]4C[C@](C)(F)C4)ccc3C)cc(OCCO)n2)ccn1 [Example 49] | ≤ 100 | 1000 to 10000 | 100 to 500 | –
10 | Cc1ccc(NC(=O)N[C@H]2C[C@](C)(F)C2)cc1-c1cc(OCCO)nc(-c2ccnc(NC(=O)CN(C)C)c2)c1 [Example 50] | ≤ 100 | 1000 to 10000 | – | –
11 | CC(=O)Nc1cc(-c2cc(-c3cc(NC(=O)NCC45CC(F)(C4)C5)c(F)cc3C)cc(OCCO)n2)ccn1 [Example 52] | ≤ 100 | 1000 to 10000 | – | –
12 | CC(=O)Nc1cc(-c2cc(-c3cc(NC(=O)NC4CCCCC4)c(F)cc3C)cc(OCCO)n2)ccn1 [Example 53] | ≤ 100 | ≤ 100 | – | –
13 | CC(=O)Nc1cc(-c2cc(-c3cc(NC(=O)NCCC4(C)CC4)ccc3C)cc(N3CCOCC3)n2)ccn1 [Example 57] | ≤ 100 | 100 to 500 | – | –
14 | Cc1ccc(NC(=O)N[C@H]2C[C@](C)(F)C2)cc1-c1cc(-c2ccnc(NC(=O)C3CC3)c2)nc(C2CC2)c1 [Example 61] | ≤ 100 | 1000 to 10000 | – | –
15 | Cc1ccc(NC(=O)Nc2ccnc(C(C)(C)C#N)c2)cc1-c1ccnc(-c2ccnc(C(=O)NC3CC3)c2)c1 [Example 68] | ≤ 100 | 1000 to 10000 | – | –
16 | CNC(=O)c1cc(-c2cc(-c3cc(NC(=O)Nc4ccnc(C(C)(C)C#N)c4)ccc3C)ccn2)ccn1 [Example 69] | ≤ 100 | 1000 to 10000 | 1000 to 10000 | –
17 | COC(=O)Nc1cc(-c2nc(OCCO)cc(-c3cc(NC(=O)NC4CC(C)(C)C4)cnc3C)n2)ccn1 [Example 174] | ≤ 100 | 1000 to 10000 | 500 to 1000 | –
18 | COC[C@H]1CCN(C(=O)Nc2cnc(C)c(-c3ccnc(-c4ccnc(NC(=O)OC)c4)c3)c2)C1 [Example 176] | 100 to 500 | 1000 to 10000 | 1000 to 10000 | –
19 | CNC(=O)c1cc(-c2cnnc(-c3cc(NC(=O)N4CC[C@H](OC)C4)ccc3C)c2)ccn1 [Example 177] | > 1000 | 1000 to 10000 | 1000 to 10000 | –
20 | CNC(=O)c1cc(-c2cnnc(-c3cc(NC(=O)N4CCC5(CC5)C4)ccc3C)c2)ccn1 [Example 178] | 500 to 1000 | 1000 to 10000 | 1000 to 10000 | –
21 | COC[C@@H]1CCN(C(=O)Nc2cnc(C)c(-c3ccnc(-c4ccnc(NC(=O)OC)c4)c3)c2)C1 [Example 179] | 100 to 500 | 1000 to 10000 | 1000 to 10000 | –
22 | CNC(=O)c1cc(-c2cnnc(-c3cc(NC(=O)N4CCC(C(C)(C)C)C4)ccc3C)c2)ccn1 (stereo not shown) [Example 180] | 100 to 500 | 100 to 500 | 1000 to 10000 | –
23 | CNC(=O)c1cc(-c2cnnc(-c3cc(NC(=O)N4CC[C@@H](OC)C4)ccc3C)c2)ccn1 [Example 181] | > 1000 | 1000 to 10000 | 1000 to 10000 | –
24 | CNC(=O)c1cc(-c2cnnc(-c3cc(NC(=O)N4CC[C@@H](OC(F)(F)F)C4)ccc3C)c2)ccn1 [Example 182] | 100 to 500 | 1000 to 10000 | 1000 to 10000 | –
25 | CNC(=O)c1cc(-c2cnnc(-c3cc(NC(=O)N4CCC(C(C)(C)C)C4)cnc3C)c2)ccn1 (stereo not shown) [Example 184] | 500 to 1000 | 1000 to 10000 | 1000 to 10000 | –
26 | COC(=O)Nc1cc(-c2cc(-c3cc(NC(=O)NCCC4(C)CC4)ccc3F)cc(OCCO)n2)ccn1 [Example 187] | ≤ 100 | 1000 to 10000 | 1000 to 10000 | –
27 | COC(=O)Nc1cc(-c2cc(-c3cc(NC(=O)NCCC4(C)CC4)c(F)cc3F)cc(OCCO)n2)ccn1 [Example 188] | ≤ 100 | 500 to 1000 | 500 to 1000 | –
28 | COC(=O)Nc1cc(-c2nccc(-c3cc(NC(=O)N4CCC(C(F)(F)F)C4)ccc3C)n2)ccn1 (stereo not shown) [Example 193] | ≤ 100 | 1000 to 10000 | 1000 to 10000 | –
29 | CNC(=O)c1cc(-c2cc(-c3cc(NC(=O)NC4CCCCC4)c(F)cc3C)cc(OCCO)n2)ccn1 [Example 205] | ≤ 100 | 100 to 500 | – | –
30 | Cc1ccc(NC(=O)N2CCC(CC(F)(F)F)C2)cc1-c1cncc(-c2cc(N)ncn2)c1 (stereo not shown) [Example 207] | ≤ 100 | 1000 to 10000 | – | 500 to 1000

The next lines start with results.

Row | IC50 (C-Raf kinase) [nM] | IC50 (A375 cells) [nM] | IC50 (H2405 cells) [nM] | Compound | IC50 (WM3928 cells) [nM]
31 | ≤ 100 | ≤ 100 | – | CC(=O)Nc1cc(-c2cc(-c3cc(NC(=O)NC4CC(C)(C)C4)c(F)cc3C)cc(OCCO)n2)ccn1 [Example 47] | –
32 | ≤ 100 | 1000 to 10000 | – | CC(=O)Nc1cc(-c2cc(-c3cc(NC(=O)NCCC4(C)CC4)c(F)cc3C)cc(C3CC3)n2)ccn1 [Example 51] | –
33 | ≤ 100 | 100 to 500 | – | CC(=O)Nc1cc(-c2cc(-c3cc(NC(=O)NCCC4(C(F)(F)F)CC4)c(F)cc3C)cc(C3CC3)n2)ccn1 [Example 54] | –
34 | ≤ 100 | 1000 to 10000 | – | CC(=O)Nc1cc(-c2cc(-c3cc(NC(=O)NCCC4(C)CC4)c(F)cc3C)cc(C)n2)ccn1 [Example 55] | –
35 | ≤ 100 | 1000 to 10000 | – | CC(=O)Nc1cc(-c2cc(-c3cc(NC(=O)NCCC(C)(C)C#N)c(F)cc3C)cc(C3CC3)n2)ccn1 [Example 59] | –
36 | 100 to 500 | 1000 to 10000 | – | COC(C)(C)CCNC(=O)Nc1ccc(C)c(-c2cc(-c3ccnc(NC(C)=O)c3)n(C)c(=O)c2)c1 [Example 60] | –
37 | ≤ 100 | ≤ 100 | – | CC(=O)Nc1cc(-c2cc(-c3cc(NC(=O)NC4CCC(F)(F)CC4)c(F)cc3C)cc(OCCO)n2)ccn1 [Example 63] | –
38 | ≤ 100 | 1000 to 10000 | – | Cc1cc(F)c(NC(=O)NCCC2(C)CC2)cc1-c1cccc(-c2ccnc(NC(=O)C3CC3)c2)c1 [Example 64] | 100 to 500
39 | ≤ 100 | 1000 to 10000 | – | Cc1cc(F)c(NC(=O)NCCC2(C)CC2)cc1-c1cccc(-c2cc(NC(=O)C3CC3)ncn2)c1 [Example 65] | 100 to 500
40 | ≤ 100 | 1000 to 10000 | – | COC(C)(C)CCNC(=O)Nc1cc(-c2cccc(-c3ccnc(NC(C)=O)c3)c2)c(C)cc1F [Example 71] | –
41 | ≤ 100 | 1000 to 10000 | – | CNC(=O)c1cc(-c2cccc(-c3cc(NC(=O)NCCC(C)(C)OC)c(F)cc3C)c2)ccn1 [Example 72] | –
42 | ≤ 100 | 500 to 1000 | 100 to 500 | COC(C)(C)CCNC(=O)Nc1cc(-c2cnnc(-c3ccnc(NC(=O)C4CC4)c3)c2)c(C)cc1F [Example 173] | –
43 | ≤ 100 | 100 to 500 | ≤ 100 | CC(=O)Nc1cc(-c2cc(-c3cc(NC(=O)NCCC4(C)CC4)c(F)cc3C)cc(NCCO)n2)ccn1 [Example 175] | –
44 | ≤ 100 | 100 to 500 | 100 to 500 | COC(=O)Nc1cc(-c2cnnc(-c3cc(NC(=O)N4CCC(C(C)(C)C)C4)ccc3C)c2)ccn1 (stereo not shown) [Example 185] | –
45 | 100 to 500 | 1000 to 10000 | – | COC(=O)Nc1cc(-c2cnnc(-c3cc(NC(=O)N4CCC(C(C)(C)O)C4)ccc3C)c2)ccn1 (stereo not shown) [Example 206] | 1000 to 10000
